Earlier results as cited in patent US20230330064A1, “TYROSINE, TRYPTOPHAN AND PHENYLALANINE AS mTOR AGONISTS MEDIATING PROTEASOME DYNAMICS, COMPOSITIONS, METHODS AND USES THEREOF IN THERAPY, AND PROGNOSTIC METHODS FOR DRUG-RESISTANCE” (Technion Research & Development Foundation Limited, priority 2020, published 2023).

System: MCF-7
Conditions: cited from earlier work

N[C@@H](Cc1c[nH]c2cccc(F)c12)C(=O)O [L-(4-F) Trp]
growth of MCF-7 cells: completely inhibited the growth
